# Results as given in PMC10004634 (PLOS ONE, 2023).
# Like-named read-outs stand apart in the source and are kept apart here.
# Key:
# Test in all cases: biochemical
# Parameters in all cases: KINOMEscan scanMAX competition binding, DNA-tagged kinases, qPCR read-out, percent control at 300 nM
# RIPK5 = biological target: T1, RIPK5 (Homo sapiens, UniProt Q6XUX3)
# T1 construct: gene DSTYK
# T1 sequence (Q6XUX3 1-929): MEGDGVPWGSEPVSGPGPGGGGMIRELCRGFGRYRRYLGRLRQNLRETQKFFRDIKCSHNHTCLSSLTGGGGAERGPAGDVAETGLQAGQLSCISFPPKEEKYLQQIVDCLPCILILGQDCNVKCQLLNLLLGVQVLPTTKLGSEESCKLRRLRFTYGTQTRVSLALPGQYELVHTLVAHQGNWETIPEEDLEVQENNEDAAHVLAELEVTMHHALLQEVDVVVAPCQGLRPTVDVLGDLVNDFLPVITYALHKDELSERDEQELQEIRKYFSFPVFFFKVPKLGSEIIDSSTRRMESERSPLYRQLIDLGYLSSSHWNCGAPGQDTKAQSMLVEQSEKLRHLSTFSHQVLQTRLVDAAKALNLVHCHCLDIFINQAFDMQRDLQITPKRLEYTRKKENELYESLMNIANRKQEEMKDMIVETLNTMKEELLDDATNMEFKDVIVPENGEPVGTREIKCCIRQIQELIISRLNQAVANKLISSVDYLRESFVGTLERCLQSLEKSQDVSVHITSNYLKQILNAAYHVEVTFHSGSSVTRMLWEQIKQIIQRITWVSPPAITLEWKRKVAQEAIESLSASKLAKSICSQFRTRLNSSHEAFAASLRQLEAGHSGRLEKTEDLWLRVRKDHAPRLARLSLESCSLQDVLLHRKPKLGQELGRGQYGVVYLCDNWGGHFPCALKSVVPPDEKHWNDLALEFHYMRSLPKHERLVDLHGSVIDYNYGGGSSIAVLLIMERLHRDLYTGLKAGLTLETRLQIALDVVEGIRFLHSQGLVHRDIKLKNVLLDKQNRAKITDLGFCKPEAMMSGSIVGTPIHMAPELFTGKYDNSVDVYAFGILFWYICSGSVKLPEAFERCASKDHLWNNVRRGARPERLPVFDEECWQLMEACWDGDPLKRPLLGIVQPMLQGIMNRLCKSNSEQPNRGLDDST
# CSNK1G3 = CSNK1G3 (Homo sapiens, UniProt Q9Y6M4)
# GRK4 = GRK4 (Homo sapiens, UniProt P32298)
# MAP4K2 = biological target: T2, MAP4K2 (Homo sapiens, UniProt Q12851)
# T2 sequence (Q12851 1-820): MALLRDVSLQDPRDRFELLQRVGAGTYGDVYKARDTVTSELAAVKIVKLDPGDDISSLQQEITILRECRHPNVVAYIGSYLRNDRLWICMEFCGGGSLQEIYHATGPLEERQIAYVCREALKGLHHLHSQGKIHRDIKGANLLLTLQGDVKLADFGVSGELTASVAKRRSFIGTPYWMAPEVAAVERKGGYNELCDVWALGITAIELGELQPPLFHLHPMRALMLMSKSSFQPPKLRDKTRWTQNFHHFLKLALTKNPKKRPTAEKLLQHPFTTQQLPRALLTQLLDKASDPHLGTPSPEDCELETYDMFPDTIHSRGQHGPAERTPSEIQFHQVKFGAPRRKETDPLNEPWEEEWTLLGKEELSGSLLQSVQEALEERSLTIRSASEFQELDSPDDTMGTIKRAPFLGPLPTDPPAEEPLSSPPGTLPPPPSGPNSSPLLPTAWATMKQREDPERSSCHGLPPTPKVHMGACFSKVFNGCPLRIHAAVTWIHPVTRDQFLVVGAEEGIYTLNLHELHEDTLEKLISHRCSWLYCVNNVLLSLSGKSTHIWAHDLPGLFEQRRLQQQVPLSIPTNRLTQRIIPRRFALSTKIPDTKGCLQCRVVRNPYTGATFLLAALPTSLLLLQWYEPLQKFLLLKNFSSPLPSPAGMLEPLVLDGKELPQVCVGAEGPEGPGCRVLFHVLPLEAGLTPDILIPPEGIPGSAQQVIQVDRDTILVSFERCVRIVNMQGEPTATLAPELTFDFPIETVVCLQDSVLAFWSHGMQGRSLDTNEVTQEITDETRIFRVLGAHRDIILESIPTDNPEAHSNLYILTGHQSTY
# STK35 = STK35 (Homo sapiens, UniProt Q8TDR2)
# LIMK1 = LIMK1 (Homo sapiens, UniProt P53667)
# AURKA = biological target: T3, AURKA (Homo sapiens, UniProt O14965)
# T3 sequence (O14965 1-403): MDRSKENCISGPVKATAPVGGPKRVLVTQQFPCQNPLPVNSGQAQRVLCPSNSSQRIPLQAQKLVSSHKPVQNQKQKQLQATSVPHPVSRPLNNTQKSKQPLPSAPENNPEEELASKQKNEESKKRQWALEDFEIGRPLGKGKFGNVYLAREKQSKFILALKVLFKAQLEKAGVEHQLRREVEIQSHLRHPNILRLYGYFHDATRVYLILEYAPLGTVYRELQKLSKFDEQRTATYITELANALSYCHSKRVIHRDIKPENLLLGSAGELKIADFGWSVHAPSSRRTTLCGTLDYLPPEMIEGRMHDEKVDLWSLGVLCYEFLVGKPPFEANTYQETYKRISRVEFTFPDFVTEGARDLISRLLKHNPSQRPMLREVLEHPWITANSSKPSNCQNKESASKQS
# ZAK = biological target: T4, ZAK (Homo sapiens, UniProt Q9NYL2)
# T4 construct: gene MAP3K20
# [1] = read-out: Percent control / Tirabrutinib
# [2] = read-out: Percent control / Zanubrutinib
# [3] = read-out: Percent control / Acalabrutinib
# [4] = read-out: Percent control / Ibrutinib
# GRK4, sequence (P32298 whole entry): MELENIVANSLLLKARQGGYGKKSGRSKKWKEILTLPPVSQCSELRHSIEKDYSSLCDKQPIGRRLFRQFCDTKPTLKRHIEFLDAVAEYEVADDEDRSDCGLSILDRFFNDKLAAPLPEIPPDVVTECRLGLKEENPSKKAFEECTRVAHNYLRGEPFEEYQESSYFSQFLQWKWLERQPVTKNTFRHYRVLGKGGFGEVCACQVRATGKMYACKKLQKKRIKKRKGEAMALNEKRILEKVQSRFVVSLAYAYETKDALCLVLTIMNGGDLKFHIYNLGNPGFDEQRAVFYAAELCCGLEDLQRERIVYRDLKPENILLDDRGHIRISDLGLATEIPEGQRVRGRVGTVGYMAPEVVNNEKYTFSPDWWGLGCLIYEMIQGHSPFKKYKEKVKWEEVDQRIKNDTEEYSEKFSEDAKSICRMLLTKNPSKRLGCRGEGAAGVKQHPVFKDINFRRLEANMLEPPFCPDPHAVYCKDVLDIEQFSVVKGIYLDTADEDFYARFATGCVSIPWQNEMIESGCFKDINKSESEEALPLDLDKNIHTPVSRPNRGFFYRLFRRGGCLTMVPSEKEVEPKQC
# STK35, sequence (Q8TDR2 whole entry): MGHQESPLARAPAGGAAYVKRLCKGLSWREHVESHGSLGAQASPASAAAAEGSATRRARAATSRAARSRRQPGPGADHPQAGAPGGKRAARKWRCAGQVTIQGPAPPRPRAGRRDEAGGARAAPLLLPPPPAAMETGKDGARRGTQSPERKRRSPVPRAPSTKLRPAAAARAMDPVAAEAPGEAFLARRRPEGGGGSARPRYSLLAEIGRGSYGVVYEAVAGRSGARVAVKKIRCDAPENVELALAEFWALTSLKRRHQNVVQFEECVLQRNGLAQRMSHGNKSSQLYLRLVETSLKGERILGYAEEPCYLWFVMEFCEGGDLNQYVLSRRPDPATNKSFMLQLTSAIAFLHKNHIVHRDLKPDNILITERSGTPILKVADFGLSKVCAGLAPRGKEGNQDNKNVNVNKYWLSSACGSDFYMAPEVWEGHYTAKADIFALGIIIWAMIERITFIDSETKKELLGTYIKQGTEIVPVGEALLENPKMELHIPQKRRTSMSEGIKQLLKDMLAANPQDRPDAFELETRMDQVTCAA
# CSNK1G3, sequence (Q9Y6M4 whole entry): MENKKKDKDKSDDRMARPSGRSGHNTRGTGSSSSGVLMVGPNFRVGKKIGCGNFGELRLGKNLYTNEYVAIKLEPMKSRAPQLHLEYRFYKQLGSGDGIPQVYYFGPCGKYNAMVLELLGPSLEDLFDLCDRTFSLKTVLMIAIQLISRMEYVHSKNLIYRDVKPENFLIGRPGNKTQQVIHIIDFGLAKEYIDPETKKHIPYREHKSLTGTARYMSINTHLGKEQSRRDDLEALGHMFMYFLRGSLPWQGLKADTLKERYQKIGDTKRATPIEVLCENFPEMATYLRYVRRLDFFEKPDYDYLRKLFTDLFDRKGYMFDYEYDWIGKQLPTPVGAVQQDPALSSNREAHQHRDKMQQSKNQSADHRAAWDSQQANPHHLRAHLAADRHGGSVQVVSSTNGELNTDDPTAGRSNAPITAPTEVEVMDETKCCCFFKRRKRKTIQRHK
# LIMK1, sequence (P53667 whole entry): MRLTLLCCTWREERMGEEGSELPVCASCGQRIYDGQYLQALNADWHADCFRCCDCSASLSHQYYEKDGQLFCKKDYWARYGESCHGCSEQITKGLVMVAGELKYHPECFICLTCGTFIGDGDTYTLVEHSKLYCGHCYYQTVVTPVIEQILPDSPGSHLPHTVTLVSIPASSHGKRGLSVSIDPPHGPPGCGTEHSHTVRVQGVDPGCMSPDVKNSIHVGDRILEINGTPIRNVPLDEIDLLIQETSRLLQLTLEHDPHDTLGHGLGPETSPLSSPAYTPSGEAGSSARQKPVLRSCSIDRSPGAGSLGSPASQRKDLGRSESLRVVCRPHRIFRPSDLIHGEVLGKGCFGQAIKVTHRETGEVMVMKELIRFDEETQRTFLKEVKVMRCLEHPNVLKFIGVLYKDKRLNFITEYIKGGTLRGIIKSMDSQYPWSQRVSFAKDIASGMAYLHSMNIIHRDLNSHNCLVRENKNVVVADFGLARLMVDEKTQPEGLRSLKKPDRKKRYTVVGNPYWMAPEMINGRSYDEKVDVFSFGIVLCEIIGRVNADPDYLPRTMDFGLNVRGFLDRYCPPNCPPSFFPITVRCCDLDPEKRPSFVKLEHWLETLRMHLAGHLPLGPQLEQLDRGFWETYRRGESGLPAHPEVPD
# T4 sequence (Q9NYL2 whole entry): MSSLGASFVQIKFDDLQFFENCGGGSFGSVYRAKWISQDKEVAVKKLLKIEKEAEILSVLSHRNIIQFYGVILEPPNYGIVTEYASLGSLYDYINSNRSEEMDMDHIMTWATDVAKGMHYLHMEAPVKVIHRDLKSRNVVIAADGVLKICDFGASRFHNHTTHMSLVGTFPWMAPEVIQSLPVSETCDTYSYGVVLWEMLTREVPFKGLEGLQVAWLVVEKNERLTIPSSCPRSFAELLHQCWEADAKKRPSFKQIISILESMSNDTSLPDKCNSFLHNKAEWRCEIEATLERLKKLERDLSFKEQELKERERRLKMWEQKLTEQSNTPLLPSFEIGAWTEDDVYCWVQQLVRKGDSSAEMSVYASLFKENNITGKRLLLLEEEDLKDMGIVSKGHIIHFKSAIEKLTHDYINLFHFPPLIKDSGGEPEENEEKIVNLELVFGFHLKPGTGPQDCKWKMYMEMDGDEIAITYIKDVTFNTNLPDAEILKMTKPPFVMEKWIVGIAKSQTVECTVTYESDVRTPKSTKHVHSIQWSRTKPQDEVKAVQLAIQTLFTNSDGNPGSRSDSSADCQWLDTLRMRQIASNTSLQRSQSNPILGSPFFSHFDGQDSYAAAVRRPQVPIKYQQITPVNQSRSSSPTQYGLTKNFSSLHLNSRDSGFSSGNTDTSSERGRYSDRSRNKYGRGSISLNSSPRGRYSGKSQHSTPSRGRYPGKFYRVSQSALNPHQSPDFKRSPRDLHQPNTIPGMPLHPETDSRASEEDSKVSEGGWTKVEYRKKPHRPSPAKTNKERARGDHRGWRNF
smiles,measurement,setting,value
CC#CC(=O)N1CC[C@@H](n2c(=O)n(-c3ccc(Oc4ccccc4)cc3)c3c(N)ncnc32)C1 [Tirabrutinib],remaining binding at 0.3 µM,RIPK5; [1],93%
same,remaining binding at 0.3 µM,CSNK1G3; [1],99%
same,remaining binding at 0.3 µM,GRK4; [1],74%
same,remaining binding at 0.3 µM,MAP4K2; [1],80%
C=CC(=O)N1CCC([C@@H]2CCNc3c(C(N)=O)c(-c4ccc(Oc5ccccc5)cc4)nn32)CC1 [Zanubrutinib],remaining binding at 0.3 µM,STK35; [2],92%
same,remaining binding at 0.3 µM,LIMK1; [2],100%
same,remaining binding at 0.3 µM,RIPK5; [2],100%
same,remaining binding at 0.3 µM,CSNK1G3; [2],90%
same,remaining binding at 0.3 µM,GRK4; [2],85%
same,remaining binding at 0.3 µM,AURKA; [2],92%
same,remaining binding at 0.3 µM,ZAK; [2],62%
same,remaining binding at 0.3 µM,MAP4K2; [2],43%
CC#CC(=O)N1CCC[C@H]1c1nc(-c2ccc(C(=O)Nc3ccccn3)cc2)c2c(N)nccn12 [Acalabrutinib],remaining binding at 0.3 µM,STK35; [3],96%
same,remaining binding at 0.3 µM,LIMK1; [3],47%
same,remaining binding at 0.3 µM,CSNK1G3; [3],91%
same,remaining binding at 0.3 µM,GRK4; [3],89%
same,remaining binding at 0.3 µM,AURKA; [3],96%
same,remaining binding at 0.3 µM,ZAK; [3],83%
C=CC(=O)N1CCC[C@@H](n2nc(-c3ccc(Oc4ccccc4)cc3)c3c(N)ncnc32)C1 [Ibrutinib],remaining binding at 0.3 µM,STK35; [4],86%
same,remaining binding at 0.3 µM,LIMK1; [4],57%
same,remaining binding at 0.3 µM,RIPK5; [4],47%
same,remaining binding at 0.3 µM,AURKA; [4],94%
same,remaining binding at 0.3 µM,ZAK; [4],70%
same,remaining binding at 0.3 µM,MAP4K2; [4],68%
